≈ marks a conversion by molar mass, not a printed value. Counter-ions that a name gives are not always drawn.
Legend:
E. coli 1346 = assay: Antibacterial activity of the products per se, serial dilution method in liquid medium (Test E); assay type: cell-based; details: product per se; for MIC E. coli 1346 (E): test E
From the text: The antibacterial activity of the products per se is illustrated on the basis of Table 3 hereinafter, the minimum inhibitory concentration […] in vitro against E. coli 1346 being determined using the serial dilution method in liquid medium: […]

[1] = system: Citrobacter freundii 1982; assay: MIC in vitro of a 1:4 combination of ceftriaxone with a compound of formula I (Test D); assay type: cell-based; details: for MIC C. freundii 1982 (D): test D
Protocol: The minimum inhibitory concentration in vitro ([…]) of a 1:4 combination of ceftriaxone with a compound of formula I against Citrobacter freundii 1982 was measured and compiled in Table 2 hereinafter.

[2] = Table 4, 1:4 combination of ceftriaxone with the compound

MIC E. coli 1346 (E) (E. coli 1346; Table 4)	MIC C. freundii 1982 (D) [1, 2]	SMILES	further results
2 µg/mL	1 µg/mL	O=C(NC1CC1)OCC1=C(C(=O)O)N2C(=O)[C@@H]3[C@H]2[C@H](C1)CN3C(=O)C(F)(F)F [94(b), (1aS,3aR,6bR)-5-Cyclopropylcarbamoyloxymethyl-1-oxo-2-trifluoroacetyl-1a,2,3,3a,4,6b-hexahydro-1H-2,6 a-diazacyclobut[cd]indene-6-carboxylic acid sodium salt]	
2 µg/mL	0.5 µg/mL	Nc1nnc(SCC2=C(C(=O)O)N3C(=O)[C@H]4NC[C@@H](O2)[C@H]43)s1 [Example 29(c), (1aS,3aR,6bS)-S-(S-Amino-1,3,4-thiadiazol-2-yl-sulphanylmethyl)-1-oxo-4-oxa-1,1a,2,3,3a,6b-hexahydro-2,6a-diazacyclobut[cd]indene-6-carboxylic acid sodium salt]	
> 32 µg/mL	0.5 µg/mL	NC(=O)OCC1=C(C(=O)O)N2C(=O)[C@@H]3[C@H]2[C@H](C1)CN3C(=O)NCCc1cccs1 [27(g), (1aS,3aR,6bR)-5-Carbamoyloxymethyl-1-oxo-2-(2-thiophen-2-yl-ethylcarbamoyl)-1a,2,3,3a,4,6b-hexahydro-1H-2,6a-diazacyclobut[cd]indene-6-carboxylic acid sodium salt]	
1 µg/mL	2 µg/mL	O=C(NCc1ccc(O)cc1)OCC1=C(C(=O)O)N2C(=O)[C@@H]3[C@H]2[C@H](C1)CN3C(=O)C(F)(F)F [102(b), (1aS,3aR,6bR)-5-[(4-Hydroxy-benzyl)-carbamoyloxymethyl]-2-trifluoroacetyl-1-oxo-1a,2,3,3a,4,6b-hexahydro-1H-2,6a-diazacyclobut[cd]indene-6-carboxylicacid sodium salt]	
1 µg/mL	1 µg/mL	CNC(=O)Cn1nnnc1SCC1=C(C(=O)O)N2C(=O)[C@H]3NC[C@@H](C1)[C@H]32 [Example 73, (1aS,3aR,6bR)-5-(1-Methylcarbamoylmethyl-1H-tetrazol-5-ylsulphahylmethyl)-1-oxo-1a,2,3,3a,4,6b-hexahydro-1H-2,6 a-diazacyclobut[cd]indene-6-carboxylicacid trifluoroacetate]	
		CS(=O)(=O)OC1=C(C(=O)O)N2C(=O)[C@@H]3[C@H]2[C@H](C1)CN3C(=O)Nc1ccc(C(N)=O)cc1 [9(b), (1aS,3aR,6bR)-2-(4-Carbamoyl-phenylcarbamoyl)-5-methylsulphonyloxy-1-oxo-1a, 2,3,3a,4,6b-hexahydro-1H-2,6a-diazacyclobut[cd]indene-6-carboxylic acid sodium salt]	MIC E. coli 1346 (E. coli 1346; Table 3, liquid medium): 0.5 µg/mL; MIC C. freundii 1982 ([1]; Table 2, 1:4 combination of ceftriaxone with the compound): 0.25 µg/mL
16 µg/mL	8 µg/mL	Cc1nnc(SC2=C(C(=O)O)N3C(=O)[C@@H]4[C@H]3[C@H](C2)CN4C(=O)C(F)(F)F)s1 [Example 3(ad), (1aS,3aR,6bR)-5-(5-Methyl-1,3,4-thiadiazol-2-ylsulphanyl)-1-oxo-2-trifluoracetyl-1a,2,3,3a,4,6b-hexahydro-1H-2,6a-diazacyclobut[cd]indene-6-carboxylic acid sodium salt]	
		O=C(O)C1=C(CSc2ccncc2)C[C@@H]2CN(C(=O)C(F)(F)F)[C@@H]3C(=O)N1[C@H]23 [19(g), (1aS,3aR,6bR)-1-Oxo-5-(pyridin-4-ylsulphanylmethyl)-2-trifluoroacetyl-1a,2,3,3a,4,6b-hexahydro-1H-2,6a-diazacyclobut[cd]indene-6-carboxylic acid sodium salt]	MIC E. coli 1346 (E) (E. coli 1346; Table 5, particularly preferred products): 1 µg/mL; MIC C. freundii 1982 (D) ([1]; Table 5, particularly preferred products, 1:4 combination with ceftriaxone): 1 µg/mL
32 µg/mL	0.25 µg/mL	NC(=O)OCC1=C(C(=O)O)N2C(=O)[C@@H]3[C@H]2[C@H](C1)CN3C(=O)NC1CC1 [27(d), (1aS,3aR,6bR)-5-Carbamoyloxymethyl-2-cyclopropylcarbarmoyl-1-oxo-1a,2,3,3a,4,6b-hexahydro-1H-2,6a-diazacyclobut[cd]indene-6-carboxylic acid sodium salt]	
4 µg/mL (≈ 10.7 µM)	2 µg/mL	O=C([O-])C[n+]1ccc(SCC2=C(C(=O)O)N3C(=O)[C@H]4NC[C@@H](C2)[C@H]43)cc1 [Example 50, (1aS,3aR,6bR)-[4-(6-Carboxy-1-oxo-1a,2,3,3a,4,6b-hexahydro-1H-2,6a-diazacyclobut[cd]indene-5-ylmethylsulphanyl)-pyridin-1-ylio]acetatetrifluoroacetate]	
> 32 µg/mL	0.5 µg/mL	O=C(O)C1=C(CSc2ccncc2)C[C@@H]2CN(C(=O)Nc3ccc(O)cc3)[C@@H]3C(=O)N1[C@H]23 [18(j), (1aS,3aR,6bR)-2-(4-Hydroxy-phenylcarbamoyl)-1-oxo-5-(pyridin-4-ylsulphanylmethyl)-1a,2,3,3a,4,6b-hexahydro-1H-2,6a-diazacyclobut[cd]indene-6-carboxylic acid sodium salt]	
32 µg/mL (≈ 89.5 µM)	1 µg/mL	Nc1nnc(SCC2=C(C(=O)O)N3C(=O)[C@H]4NC[C@@H](S2)[C@H]43)s1 [40(e), (1aS,3aR,6bS)-5-(5-Amino-1,3,4-thiadiazol-2-ylsulphanylmethyl)-1-oxo-4-thia-1,1a,2,3,3a,6b-hexahydro-2,6a-diazacyclobut[cd]indene-6-carboxylic acid]	
≤ 0,25 μg/ml	0.25 µg/mL	NC(=O)OCC1=C(C(=O)O)N2C(=O)[C@@H]3[C@H]2[C@H](C1)CN3C(=O)NCc1cccs1 [27(f), (1aS,3aR,6bR)-5-Carbamoyloxymethyl-2-(thiophen-2-ylmethylcarbamoyl)-1-oxo-1a,2,3,3a,4,6b-hexahydro-1H-2,6a-diaza-cyclobut[cd]indene-6-carboxylic acid sodium salt]	
4 µg/mL	1 µg/mL	CNC(=O)OCC1=C(C(=O)O)N2C(=O)[C@H]3NC[C@@H](C1)[C@H]32 [Example 97, (1aS,3aR,6bR)-5-Methylcarbamoyloxymethyl-1-oxo-1a,2,3,3a,4,6b-hexahydro-1H-2,6a-diazacyclobut[cd]indene-6-carboxylic acid trifluoroacetate]	
> 32 µg/mL	16 µg/mL	CC(=O)N1C[C@H]2OC(CSc3ccncc3)=C(C(=O)O)N3C(=O)[C@@H]1[C@@H]23 [32(a), (1aS,3aR,6bS)-2-Acetyl-5-(pyridin-4-ylsulphanylmethyl)-1-oxo-1,1a,2,3,3a,6b-hexahydro-4-oxa-2,6a-diazacyclobut[cd]indene-6-carboxylic acid sodium salt]	
2 µg/mL	4 µg/mL	CC(=O)NCC1=C(C(=O)O)N2C(=O)[C@H]3NC[C@@H](C1)[C@H]32 [Example 84, (1aS,3aR, 6bR)-5-Acetylaminomethyl-1-oxo-l a,2,3,3a,4,6b-hexahydro-1H-2,6a-diazacyclobut[cd]indene-6-carboxylic acid trifluoroacetate]	
4 µg/mL	2 µg/mL	O=C(Nc1ccc(O)cc1)OCC1=C(C(=O)O)N2C(=O)[C@H]3NC[C@@H](C1)[C@H]32 [Example 89, (1aS,3aR,6bR)-5-(4-Hydroxy-phenylcarbamoyloxymethyl)-1-oxo-1a,2,3,3a,4,6b-hexahydro-1H-2,6a-diazacyclobut[cd]indene-6-carboxylic acid trifluoroacetate]	
2 µg/mL	1 µg/mL	O=C(NCc1ccncc1)OCC1=C(C(=O)O)N2C(=O)[C@@H]3[C@H]2[C@H](C1)CN3C(=O)C(F)(F)F [100(b), (1aS,3aR,6bR)-1-Oxo-5-(pyridin-4-ylmethylcarbamoyloxymethyl)-2-trifluoroacetyl-1a,2,3,3a,4,6b-hexahydro-1H-2,6a-diazacyclobut[cd]indene-6-carboxylic acid sodium salt]	
16 µg/mL	4 µg/mL	CS(=O)(=O)NCC1=C(C(=O)O)N2C(=O)[C@H]3NC[C@@H](C1)[C@H]32 [Example 87, (1aS,3aR,6bR)-5-Methylsulphonylaminomethyl-1-oxo-1a,2,3,3a,4,6b-hexahydro-1H-2,6a-diazacyclobut[cd]indene-6-carboxylic acid trifluoroacetate]	

SMILES	MIC E. coli 1346 (E) (E. coli 1346; Table 4)	MIC C. freundii 1982 (D) [1, 2]	further results
CC(C)(C)OC(=O)CCNC(=O)N1C[C@H]2CC(C[n+]3ccccc3)=C(C(=O)[O-])N3C(=O)[C@@H]1[C@@H]23 [23(f), (1aS,3aR,6bR)-2-(2-t-Butoxycarbonyl-ethylcarbamoyl)-1-oxo-5-(pyridin-1-yliomethyl)-1a,2,3,3a,4,6b-hexahydro-1H-2,6a-diazacyclobut[cd]indene-6-carboxylate]	> 32 µg/mL	4 µg/mL	
[N-]=[N+]=NCC1=C(C(=O)O)N2C(=O)[C@H]3NC[C@@H](C1)[C@H]32 [Example 81, (1aS,3aR,6bR)-5-Azidomethyl-1-oxo-1a,2,3,3a,4,6b-hexahydro-1H-2,6a-diazacyclobut[cd]indene-6-carboxylic acid trifluoroacetate]	1 µg/mL	1 µg/mL	
Cn1nnnc1SCC1=C(C(=O)O)N2C(=O)[C@@H]3[C@H]2[C@H](C1)CN3C(=O)NCCC(=O)OC(C)(C)C [18(f), (1aS,3aR,6bR)-2-(2-t-Butoxycarbonyl-ethylcarbarmoyl)-5-(1-methyl-1H-tetrazol-5-ylsulphanylmethyl)-1-oxo-1a,2,3,3a,4,6b-hexahydro-1H-2,6a-diazacyclobut[cd]indene-6-carboxylic acid sodium salt]	4 µg/mL	1 µg/mL	
